What was measured:
Mus musculus [1] = organism: Mus musculus; assay: Effect on hexobarbital induced sleep was determined in hexobarbital potentiation test; Range (181.4-219.9); assay type: functional
Mus musculus [2] = assay: Antiaggressive anxiolytic activity in the electroshock-induced fighting test in mice (po); Range (1.46-5.72); assay type: functional
Mus musculus [3] = organism: Mus musculus; assay: Ataxic activity in mice by rotarod test; Range (87.7-114.6); assay type: functional
Rattus norvegicus = assay: Antiaggressive anxiolytic activity in the hexagonal maze test in rat after po administration of 2.6 mg/kg; assay type: functional
[4] = Ratio of ED50 (hexobarbital) to that of ED50 (fighting); assay type: functional
[5] = Ratio of ED50 (rotarod) to that of ED50 (fighting); assay type: functional
Mus musculus [6] = assay: Antiaggressive anxiolytic activity in the electroshock-induced fighting test in mice (po); Range (1 7.3-25.4); assay type: functional
Mus musculus [7] = assay: Antiaggressive anxiolytic activity in the electroshock-induced fighting test in mice (po); Range (11.7-20.3); assay type: functional
Mus musculus [8] = organism: Mus musculus; assay: Effect on hexobarbital induced sleep was determined in hexobarbital potentiation test; Range (8.3-15.4); assay type: functional
Mus musculus [9] = assay: Antiaggressive anxiolytic activity in the electroshock-induced fighting test in mice (po); Range (6.62-10.07); assay type: functional
Mus musculus [10] = organism: Mus musculus; assay: Ataxic activity in mice by rotarod test; Range (1.1-5.3); assay type: functional
Mus musculus [11] = assay: Antiaggressive anxiolytic activity in the electroshock-induced fighting test in mice (po); Range (9.4-17.88); assay type: functional
Mus musculus [12] = organism: Mus musculus; assay: Effect on hexobarbital induced sleep was determined in hexobarbital potentiation test; Range (1 19.4-168.3); assay type: functional
Mus musculus [13] = assay: Antiaggressive anxiolytic activity in the electroshock-induced fighting test in mice (po); Range (0.69-2.88); assay type: functional
Mus musculus [14] = organism: Mus musculus; assay: Ataxic activity in mice by rotarod test; Range (231.4-298.5); assay type: functional
Mus musculus [15] = assay: Antiaggressive anxiolytic activity in the electroshock-induced fighting test in mice (po); Range (1.19-5.72); assay type: functional
Mus musculus [16] = assay: Antiaggressive anxiolytic activity in the electroshock-induced fighting test in mice (po); Range (3.1-7.7); assay type: functional
Mus musculus [17] = assay: Antiaggressive anxiolytic activity in the electroshock-induced fighting test in mice (po); Range (8.3-16.1); assay type: functional
Mus musculus [18] = assay: Antiaggressive anxiolytic activity in the electroshock-induced fighting test in mice (po); Range (13.27-18.96); assay type: functional
Monkey [19] = assay: Tested for ability to maintain self-administration after administration of 0.3 mg/kg in monkey 3038 (53.9+/-9.3); assay type: functional, Cercopithecidae
Monkey [20] = assay: Tested for ability to maintain self-administration after administration of 0.3 mg/kg in monkey 9079 (56.5+/-18.0); assay type: functional, Cercopithecidae
Monkey [21] = assay: Tested for ability to maintain self-administration after administration of 0.3 mg/kg in monkey 2037 (60.1+/-5.3); assay type: functional, Cercopithecidae
Monkey [22] = assay: Tested for ability to maintain self-administration after administration of 0.3 mg/kg in monkey 3017 (76.6+/-15.9); assay type: functional, Cercopithecidae
Monkey [23] = assay: Tested for ability to maintain self-administration after administration of 0.1 mg/kg in monkey 9083 (59.8+/-15.8); assay type: functional, Cercopithecidae
Monkey [24] = assay: Tested for ability to maintain self-administration after administration of 0.3 mg/kg in monkey 2036 (44.9 +/-5.6); assay type: functional, Cercopithecidae
Mus musculus [25] = assay: Effect on hexobarbital induced sleep was determined in hexobarbital potentiation test (po); Range (76.3-106.2); assay type: functional
Mus musculus [26] = assay: Antiaggressive anxiolytic activity in the electroshock-induced fighting test in mice (po); Range (7.3-11.9); assay type: functional
Mus musculus [27] = organism: Mus musculus; assay: Ataxic activity in mice by rotarod test; Range (355.1-460.2); assay type: functional

## COc1cc(OCC(O)CN2CCN(c3ccccc3NC(C)=O)CC2)cc(OC)c1OC (centres undefined)
Mus musculus [1]
  ED50: 200 mg/kg
Mus musculus [2]
  ED50: 3.3 mg/kg
Mus musculus [3]
  ED50: 100 mg/kg
Rattus norvegicus
  Prolongation: 50%
[4]
  Therapeutic index: 61
[5]
  Therapeutic index: 30

## COc1cc(OCC(O)CN2CCN(c3ccccc3C(F)(F)F)CC2)cc(OC)c1OC.Cl (centres undefined)
Mus musculus [6]
  ED50: 21 mg/kg

## COc1cc(OCC(O)CN2CCN(c3ccccc3Cl)CC2)cc(OC)c1OC.Cl (centres undefined)
Mus musculus [7]
  ED50: 16 mg/kg

## O=C1CN=C(c2ccccc2)c2cc(Cl)ccc2N1CC1CC1 [PRAZEPAM]
Mus musculus [8]
  ED50: 11.5 mg/kg
Mus musculus [9]
  ED50: 8 mg/kg
Mus musculus [10]
  ED50: 3.1 mg/kg
[4]
  Therapeutic index: 1.4
[5]
  Therapeutic index: 0.4

## COc1ccccc1N1CCN(CC(COc2cc(OC)c(OC)c(OC)c2)OC(=O)c2cccnc2)CC1.Cl (centres undefined)
Mus musculus [11]
  ED50: 14 mg/kg

## COc1cc(OCC(O)CN2CCN(c3ccccc3N)CC2)cc(OC)c1OC.Cl (centres undefined)
Mus musculus [12]
  ED50: 145 mg/kg
Mus musculus [13]
  ED50: 1.4 mg/kg
Mus musculus [14]
  ED50: 260 mg/kg
[4]
  Therapeutic index: 103
[5]
  Therapeutic index: 185

## COc1cc(OCC(O)CN2CCN(c3ccccc3OC(C)=O)CC2)cc(OC)c1OC.Cl (centres undefined)
Mus musculus [15]
  ED50: 3.3 mg/kg

## COc1cccc(N2CCN(CC(O)COc3cc(OC)c(OC)c(OC)c3)CC2)c1.Cl (centres undefined)
Mus musculus [16]
  ED50: 5.5 mg/kg

## COc1cc(OCC(O)CN2CCN(c3cccc(C)c3)CC2)cc(OC)c1OC.Cl (centres undefined)
Mus musculus [17]
  ED50: 12 mg/kg

## COc1ccccc1N1CCN(CC(COc2cc(OC)c(OC)c(OC)c2)OC(=O)c2cc(OC)c(OC)c(OC)c2)CC1.Cl (centres undefined)
Mus musculus [18]
  ED50: 16 mg/kg

## CCCC(C)C1(CC)C(=O)NC(=O)NC1=O (centres undefined) [PENTOBARBITAL]
Monkey [19]
  Effect: 53.9
Monkey [20]
  Effect: 56.5
Monkey [21]
  Effect: 60.1
Monkey [22]
  Effect: 76.6
Monkey [23]
  Effect: 59.8
Monkey [24]
  Effect: 44.9

## COc1cc(OCC(O)CN2CCN(c3cccc(C(F)(F)F)c3)CC2)cc(OC)c1OC.Cl (centres undefined)
Mus musculus [25]
  ED50: 90 mg/kg
Mus musculus [26]
  ED50: 9 mg/kg
Mus musculus [27]
  ED50: 400 mg/kg
[4]
  Therapeutic index: 10
[5]
  Therapeutic index: 44

Source: ChEMBL document CHEMBL1125004, “Chemistry and pharmacology of the non-benzodiazepine anxiolytic enciprazine and related compounds” (1990)
